In patent US9624155B2, “Iron (III) citrate, substantially free of beta-iron hydroxide oxide” (Japan Tobacco Inc., priority 2011, dated 2017) one finds Specific surface area data, which are given here for 21 molecules.

The data set in a line: Specific surface area by nitrogen gas adsorption (BET). It is filed as physicochemical. The conditions noted are these: relative pressure 0.05 to 0.3 (BET surface area). The procedure:
A specific surface area can be measured by, for example, but is not limited to, BET surface area measurement via nitrogen gas adsorption (relative pressure: 0.05 to 0.3).
Specific surface areas of iron(III) citrates of Comparative Examples 11 and 12 and Examples 1, 4, 5, 6, 7, and 10 to 23 were measured by nitrogen gas adsorption (relative pressure: 0.05 to 0.3) (BET surface area).

Take `O=C([O-])CC(O)(CC(=O)[O-])C(=O)[O-].[Fe+3]` [Comparative Example 11, iron(III) citrate]: the Specific surface area worked out at 0.80 m^2/g.
Next, `O=C([O-])CC(O)(CC(=O)[O-])C(=O)[O-].[Fe+3]` [Comparative Example 12, iron(III) citrate]: 0.62 m^2/g; `O=C([O-])CC(O)(CC(=O)[O-])C(=O)[O-].[Fe+3]` [Example 1, iron(III) citrate]: 21.8 m^2/g.
In the case of `O=C([O-])CC(O)(CC(=O)[O-])C(=O)[O-].[Fe+3]` [Example 4, iron(III) citrate], the Specific surface area is on record as 33.4 m^2/g.
To `O=C([O-])CC(O)(CC(=O)[O-])C(=O)[O-].[Fe+3]` [Example 5, Iron(III) citrate] belongs 31.0 m^2/g; to `O=C([O-])CC(O)(CC(=O)[O-])C(=O)[O-].[Fe+3]` [Example 6, Iron(III) citrate], 30.4 m^2/g; to `O=C([O-])CC(O)(CC(=O)[O-])C(=O)[O-].[Fe+3]` [Example 7, Iron(III) citrate], 29.8 m^2/g.
To `O=C([O-])CC(O)(CC(=O)[O-])C(=O)[O-].[Fe+3]` [Example 10, Iron(III) citrate] belongs 29.9 m^2/g.
In turn, `O=C([O-])CC(O)(CC(=O)[O-])C(=O)[O-].[Fe+3]` [Example 11, Iron(III) citrate] returned a Specific surface area of 30.0 m^2/g.
`O=C([O-])CC(O)(CC(=O)[O-])C(=O)[O-].[Fe+3]` [Example 12, Iron(III) citrate] came in with a Specific surface area of 30.3 m^2/g.
`O=C([O-])CC(O)(CC(=O)[O-])C(=O)[O-].[Fe+3]` [Example 13, Iron(III) citrate]: the Specific surface area was 29.1 m^2/g.
`O=C([O-])CC(O)(CC(=O)[O-])C(=O)[O-].[Fe+3]` [Example 14, Iron(III) citrate] displayed a Specific surface area of 37.9 m^2/g.
For `O=C([O-])CC(O)(CC(=O)[O-])C(=O)[O-].[Fe+3]` [Example 15, Iron(III) citrate], the Specific surface area is 38.5 m^2/g.
To `O=C([O-])CC(O)(CC(=O)[O-])C(=O)[O-].[Fe+3]` [Example 16, Iron(III) citrate] belongs 33.7 m^2/g; to `O=C([O-])CC(O)(CC(=O)[O-])C(=O)[O-].[Fe+3]` [Example 17, Iron(III) citrate], 32.4 m^2/g.
To `O=C([O-])CC(O)(CC(=O)[O-])C(=O)[O-].[Fe+3]` [Example 18, Iron(III) citrate] belongs 39.9 m^2/g; to `O=C([O-])CC(O)(CC(=O)[O-])C(=O)[O-].[Fe+3]` [Example 19, Iron(III) citrate], 39.8 m^2/g.
Next, `O=C([O-])CC(O)(CC(=O)[O-])C(=O)[O-].[Fe+3]` [Example 20, Iron(III) citrate]: 33.8 m^2/g.
On to `O=C([O-])CC(O)(CC(=O)[O-])C(=O)[O-].[Fe+3]` [Example 21, Iron(III) citrate], for which the Specific surface area is 35.5 m^2/g.
Next, `O=C([O-])CC(O)(CC(=O)[O-])C(=O)[O-].[Fe+3]` [Example 22, Iron(III) citrate]: 32.6 m^2/g.
With `O=C([O-])CC(O)(CC(=O)[O-])C(=O)[O-].[Fe+3]` [Example 23, Iron(III) citrate], the Specific surface area turned out to be 32.8 m^2/g.
